In paper PMC11434613, “The Remarkable and Selective In Vitro Cytotoxicity of Synthesized Bola-Amphiphilic Nanovesicles on Etoposide-Sensitive and -Resistant Neuroblastoma Cells” (Nanomaterials, 2024):
Where “and” joins values, the source holds several entries; their conditions need not be identical. Equal entries are not always repeated.

Key:
[1] = system: HTLA-230 human stage-IV NB cells; experiment: Cell viability assay (CellTiter 96 AQueous One Solution) on HTLA-230 NB cells; assay type: cell-based; conditions: for viability at 0.5 µM: series 0.5–50 µM
Source text: HTLA-230 human stage-IV NB cells were kindly provided by Dr. L. Raffaghello (G. Gaslini Institute, Genoa, Italy). The HTLA-ER cells were selected by treating HTLA-230 parental cells for six months with increasing concentrations of etoposide, as previously reported. Both cell populations were maintained in RPMI 1640 medium (Euroclone Spa, Pavia, Italy) supplemented with 10% fetal bovine serum (FBS, Euroclone Spa, Pavia, Italy), 1% L-glutamine (Euroclone Spa, Pavia, Italy), and 1% Penicillin/Streptomicin (Euroclone Spa, Pavia, Italy) and grown in standard conditions (37 °C humidified incubator with 5% CO2).
To determine the cytotoxic effects of BPPB, in vitro time- and dose-dependent experiments were carried out. Cells were first treated for 24, 48, and 72 h, with increasing concentrations (0.5–50 µM) of the compound. In a subsequent series of the experiments, cells were treated for 24, 48, and 72 h with increasing concentration of BPPB in the range of 0.1–2 µM. […] Cell cultures were carefully monitored before and during the experiments to ensure optimal cell density.
Cell viability was determined by using the CellTiter 96® AQueous One Solution Cell Proliferation Assay (Promega, Madison, WI, USA), as previously described. Briefly, cells (10,000 cells/well) were seeded into 96-well plates (Corning Incorporated, Corning, NY, USA) and then treated. Next, cells were incubated with 20 µL of CellTiter, and the absorbance at 490 nm was recorded using a microplate reader (EL-808, BIO-TEK Instruments Inc., Winooski, VT, USA). IC50 was evaluated by GraphPad Prism 5.4.2 Software (GraphPad Software, Boston, MA, USA).
Results are expressed as the means ± S.D. of at least four independent experiments in which six different wells were analyzed every time for each experimental condition. The statistical significance of differences was determined by two-way analysis of variances (ANOVA) followed by Tukey’s multicomparison test using GraphPad Prism 8.0 (GraphPad Software v8.0, San Diego, CA, USA); p < 0.05 was considered statistically significant. Asterisks or other indicators (see Figures captions) indicate the following p-value ranges: p > 0.05 no symbols, * = p < 0.05, ** = p < 0.01, *** = p < 0.001, **** = p < 0.0001.

[2] = Presto Blue viability test on MRC-5 lung fibroblasts; assay type: cell-based, human; conditions: human
Method: (§1) Human MRC-5 lung fibroblast cells were used (ICLC-IRCCS San Martino, Genoa, Italy); cells were expanded in DMEM/F12 50%/50% (Dulbecco’s Modified Eagle Medium/Ham’s F12 50/50 Mix; Corning, Pisa, Italy; cat. n. 10-090-CV; ThermoFisher Scientific, Segrate (MI), Italy, supplemented with 10% fetal bovine serum (GIBCO-Invitrogen, GIBCO-ThermoFisher Life Science, Segrate, Italy, catalog number (cat. n.) 10270-098) and 2 mM glutamine (Euro-Clone; Pero, MI, Italy; cat. n. EC B3000D) at 37 °C under 5% CO2 aeration. After expansion, cells were washed three times with sterile phosphate buffered solution (PBS; VWR, Milano, Italy, cat. n. 392-0442), detached with 0.25% Trypsin solution (Corning; cat-25-050-CI), collected in complete medium, and centrifuged at 400× g for 12 min. The supernatant was discarded, and cells were suspended in PBS, counted, and centrifuged again as mentioned above. Cells were then resuspended in complete medium, seeded into 24-well plates (20,000 cells/well) and allowed to adhere to the plate for the next 24 h. Subsequently, non-adherent cells and the plating medium were discarded, and fresh standard medium or treatment medium were added. Treatment media contained BPPB at different concentrations (0.5, 1.0, 5.0, 25.0, 50.0, 75.0 and 100.0 μM); triplicate wells for each concentration were tested simultaneously, as well as controls. The medium was changed every day. Cells were photographed and assayed for viability prior to treatment (time 0; T0) and after 24, 48, and 72 h subsequently (T24, T48 and T72). Bright field images of each well/treatment were acquired using a Nikon Digital Sigh DS-5Mc camera (Nikon Europe B.V., Amstelveen, The Netherlands) mounted on an inverted Olympus CKX-41 microscope (Evident Europe GmbH, Segrate (Milan), Italy) (4×, 10× and 20× enlargements).
(§2) Briefly, at the indicated time points, cells were washed twice with PBS and incubated in the dark a 37 °C for 4 h with fresh complete medium supplemented with 10% Presto Blue ^TM. Aliquots of the Presto Blue ^TM-containing medium were incubated in the same conditions, to be used as reaction blanks. Supernatants and blanks were then collected and analyzed using a Spectra MR multi-plate reader spectrophotometer (Dynex Technologies; Chantilly, VA, USA) at 570 and 600 nm. The results were calculated as the average of treatment replicas (triplicates) ± S.D., normalizing each 570 nm reading to its corresponding value at 600 nm, subtracting the average blank value, and normalizing the results at each time point to the initial reading at T0.

[3] = system: Human MRC-5 lung fibroblast cells; experiment: as above; assay type: cell-based; conditions: for IC50: concentration range 0.5–5 µM
Method: as §1, §2

Cos-7 cells = system: Cos-7 cells; set-up: method as in earlier work; conditions: MTT test; Table S1, previously assessed characteristics; cited from earlier work
HepG2 cells = system: HepG2 cells; set-up: method as in earlier work; conditions: MTT test; Table S1, previously assessed characteristics; cited from earlier work

With `c1ccc([P+](CCCCCCCCCCCC[P+](c2ccccc2)(c2ccccc2)c2ccccc2)(c2ccccc2)c2ccccc2)cc1` [BPPB, 1,1-(1,12-dodecanediyl)bis [1,1, 1]-triphenylphosphonium di-bromide] the “Cell viability HTLA-230” value ([1]; 24 h, concentration at which hemolysis was inexistent (concentration not stated)) was 18.2%, the IC50 ([1]; 24 h exposure, refined concentration range 0.1–2 µM) was 240 nM and 238 nM and the “Viable cells, both NB cell populations” value ([1]; 24 h treatment, HTLA-230 and HTLA-ER, concentrations leaving more than 98% of RBCs alive) was 14–18%. It also gave an IC50 ([1]; Homo sapiens, HTLA-230, 24 h, 24 h exposure, concentration range 0.5–50 µM) of 738 ± 546 nM, an IC50 ([1]; Homo sapiens, HTLA-230, 24 h, 24 h exposure, refined concentration range 0.1–2 µM) of 200 nM and an IC50 ([1]; Homo sapiens, HTLA-230, 48 h, 48 h exposure, concentration range 0.5–50 µM) of 590 ± 445 nM. It also gave an IC50 ([1]; Homo sapiens, HTLA-230, 48 h, 48 h exposure, refined concentration range 0.1–2 µM) of 196 ± 21.1 nM, an IC50 ([1]; Homo sapiens, HTLA-230, 72 h, 72 h exposure, concentration range 0.5–50 µM) of 203 ± 178 nM and an IC50 ([1]; Homo sapiens, HTLA-230, 72 h, 72 h exposure, refined concentration range 0.1–2 µM) of 228 ± 17.6 nM. The viability at 0.25 µM ([1]; Homo sapiens, HTLA-230, 0.25 µM, 24 h, series 0.1–2 µM) was 53.1%, the viability at 0.5 µM ([1]; Homo sapiens, HTLA-230, 24 h) was 46% and the viability at 0.5 µM ([1]; Homo sapiens, HTLA-230, 48 h) was 41.6%. For the same molecule, the viability at 0.5 µM ([1]; Homo sapiens, HTLA-230, 72 h) was 21.7%, the viability at 5 µM ([1]; Homo sapiens, HTLA-230, concentrations ≥ 5 µM, 24, 48, 72 h) was 16 to 18% and the “Selectivity indexes (SIs), all non-tumoral cells vs both NB cell populations” value ([1]; after 24 h treatments, MRC-5, Cos-7, HepG2, RBCs vs HTLA-230 and HTLA-ER) was 2.5–74.6. The selectivity ratio at 24 h ([2]; 24 h, read-out: Selectivity index (SI) = IC50 MRC-5 / IC50 HTLA-ER) was 2.5, the selectivity ratio at 48 h ([2]; 48 h, read-out: Selectivity index (SI) = IC50 MRC-5 / IC50 HTLA-ER) was roughly 1 and the selectivity ratio at 72 h ([2]; 72 h, read-out: Selectivity index (SI) = IC50 MRC-5 / IC50 HTLA-ER) was roughly 1. It also gave a viability at 48 h, 1 µM ([2]; MRC-5 lung fibroblast cells, 1.0 µM, 48 h, read-out: Percentage of viable MRC-5 cells with respect to seeded cells at T0) of 26.8%, a viability at 72 h, 1 µM ([2]; MRC-5 lung fibroblast cells, 1.0 µM, 72 h, read-out: Percentage of viable MRC-5 cells with respect to seeded cells at T0) of 30.6% and a viability at 5 µM ([2]; MRC-5 lung fibroblast cells, 5 µM, 48–72 h, read-out: Cell viability MRC-5) of 3%. It also gave a viability at 24 h, 5 µM ([2]; MRC-5 lung fibroblast cells, 5 µM, 24 h, read-out: Cell viability MRC-5) of 38%, a viability at 48 h, 5 µM ([2]; MRC-5 lung fibroblast cells, 5.0 µM, 48 h, read-out: Percentage of viable MRC-5 cells with respect to seeded cells at T0) of 2.78% and a viability at 72 h, 5 µM ([2]; MRC-5 lung fibroblast cells, 5.0 µM, 72 h, read-out: Percentage of viable MRC-5 cells with respect to seeded cells at T0) of 3.04%. The “Selectivity index (SI) = IC50 MRC-5 / IC50 HTLA-230” value ([3]; 24 h) was 11.68, the “Selectivity index (SI) = IC50 MRC-5 / IC50 HTLA-ER” value ([3]; 24 h) was 2.49 and the IC50 ([3]; 24 h exposure) was 2770 nM. For the same molecule, the “Selectivity index (SI) = IC50 MRC-5 / IC50 HTLA-230” value ([3]; 48 h) was 3.77, the “Selectivity index (SI) = IC50 MRC-5 / IC50 HTLA-ER” value ([3]; 48 h) was 0.80 and the “Selectivity index (SI) = IC50 MRC-5 / IC50 HTLA-230” value ([3]; 72 h) was 4.01 and 4.07. For the same molecule, the “Selectivity index (SI) = IC50 MRC-5 / IC50 HTLA-ER” value ([3]; 72 h) was 1.11, the “Fold higher SI for HTLA-ER than that of ETO” value ([3]; BPPB SI vs MRC-5, 24 h (2.49) against ETO SI (0.32)) was 7.8 fold and the IC50 ([3]; Homo sapiens, MRC5, 24 h, 24 h exposure) was 2800 nM. For the same molecule, the IC50 ([3]; Homo sapiens, MRC5, 48 h, 48 h exposure) was 740 ± 572 nM, the IC50 ([3]; Homo sapiens, MRC5, 72 h, 72 h exposure) was 928 ± 896 nM and the “Effect on plated MRC-5 cells” value ([3]; any concentration equal to or higher than 25 µM, within 24 h) was “detachment and death of all plated cells”. For the same molecule, the “IC50 COS-7 cell” value (Cos-7 cells) was 5.76 ± 0.95 µg/mL and the “IC50 HepG2 cell” value (HepG2 cells) was 11.31 ± 1.54 µg/mL.
